Source: US7977282B2, “Chemical amendments for the stimulation of biogenic gas generation in deposits of carbonaceous material” (Luca Technologies, Inc., priority 2006, dated 2011)
“Also recorded” adds a separate entry of the source.

Assays:
[1] = tested on: methanogenesis in Powder River Basin coal and formation water; assay: Single and multiple nutrient amendments, Powder River Basin coal (FIG. 9); assay type: cell-based; conditions: phosphate 5 mg/L, yeast extract about 500 mg/L, BESA about 10 mM
Procedure: Two comparative groups were also measured: (1) Samples of the Power River Basin coal to which no amendments were added (unamended), and (2) Samples of the PRB coal to which bromoethanesulfonic acid (BESA), a known methanogen-specific inhibitor, was added.
The headspace in the bottle above the sample was exchanged with helium.
The amendments were added to the sample bottles until a target concentration of the amendment was reached. […] For the yeast extract only amended, Difco® yeast extract from Becton Dickinson and Company was added to the sample bottles until a concentration of about 500 mg/L was reached.
Finally, for the samples used in the comparative example where methane production from methanogenesis was inhibited, BESA was added to the sample bottles until it reached a concentration of about 10 mM.
Methane production from the samples were measured and plotted as the percentage of methane in the headspace above the liquid in the serum bottle. Three sample bottles were prepared for each amendment, and the methane concentrations were measured in triplicate and averaged.

[2] = tested on: methanogenesis in produced water and oil; assay: Phosphorous compound amendments in oil samples, field in Texas (FIG. 10); assay type: cell-based; conditions: 45° C., 14 days, oil from Texas field
Procedure: Produced water and oil samples were collected directly from well heads after passing produced fluids through a portable anaerobic and disinfected oil-water separator. Strict anoxic techniques were used. The water samples were maintained at field temperature prior to use in experiments. Twenty mls of produced water and 0.1 ml of oil were distributed into sterile 36.5 ml serum bottles contained within a disinfected anaerobic glove bag. The anaerobic glove bag contained a filtration apparatus for removing airborne microbial contaminants. […] Incubation temperature was 45° C., the approximate in-situ temperature. Incubation period prior to headspace gas analysis was 14 days. The samples were prepared with the following amendments: […] Final bottle concentration −0.5 mg/L as Phosphorous; (2) Minerals (100× less the stock concentration in Table 2); (3) Metals (300× less the stock concentration in Table 1); (4) Minerals+Metals+Yeast extract (25 mg/L); (5) Minerals+Metals+Vitamins (100× less the stock concentration in appendix 1)+Yeast extract (25 mg/L). In addition, two comparative experiments were run for: […] The experimental bottles were placed into a heated water bath maintained at the field temperature during gas analysis to avoid temperature fluctuations. […] The methane measurements, expressed as the percentage of methane in the headspace above the sample bottles, were plotted in FIG. 10.

methanogenic consortia = assay: Enrichment transfer of methanogenic consortia on coal (FIG. 13); assay type: cell-based
Procedure: With the discovery that methanogenic consortia are commonly present in formation waters, a significant research effort, both laboratory and field oriented, was directed at identify methodologies for enhancing their activities in-situ. To this end, methanogenic consortia capable of rapid methanogenesis on coal from the Powder River Basin have been obtained using an enrichment procedure wherein a small volume of an active consortium is added to a “sterile” slurry bottle (in this case, autoclaved Tongue River coal and filter sterilized Tongue River formation water). The consortium is allowed to grow and metabolize, then the dilution series is repeated. This enrichment procedure appears to favor the growth of microorganisms more capable of metabolizing coal to methane. […] Very rapid methanogenesis was observed after the second transfer with rates 57 times greater on average relative to the parent samples (leftmost bars). The two exceptions to the trend were the last two sample sets on the far right of FIG. 13. These were cases in which methanogenesis was inhibited in the parental bottles intentionally with BESA and unintentionally in bottles that received solvent (pyridine) extracts of coal.

[3] = tested on: methanogenesis and acetate production in produced water and oil; assay: Phosphorous compound amendments in oil samples, field in Montana (FIGS. 11A-B); assay type: cell-based; conditions: oil from Montana field
Procedure: Produced water and oil samples were collected directly from well heads after passing produced fluids through a portable anaerobic and disinfected oil-water separator. Strict anoxic techniques were used. The water samples were maintained at field temperature prior to use in experiments.
Twenty mls of produced water and 0.1 ml of oil were distributed into sterile 36.5 ml serum bottles contained within a disinfected anaerobic glove bag. The anaerobic glove bag contained a filtration apparatus for removing airborne microbial contaminants. […] Incubation temperature was 45° C., the approximate in-situ temperature. Incubation period prior to headspace gas analysis was 14 days. The samples were prepared with the following amendments: (1) Sodium phosphate. Final bottle concentration −0.5 mg/L as Phosphorous; (2) Minerals (100× less the stock concentration in Table 2); (3) Metals (300× less the stock concentration in Table 1); (4) Minerals+Metals+Yeast extract (25 mg/L); (5) Minerals+Metals+Vitamins (100× less the stock concentration in appendix 1)+Yeast extract (25 mg/L). […]
The experimental bottles were placed into a heated water bath maintained at the field temperature during gas analysis to avoid temperature fluctuations. […] The methane measurements, expressed as the percentage of methane in the headspace above the sample bottles, were plotted in FIG. 10. […]

[4] = tested on: microorganisms present in the sample (Monarch coal seam coal and formation water); assay: Biogenic methane generation from Monarch coal samples with hydrogen, phosphorous compound and ammonia amendments; conditions: different coal and formation water sample; no ammonium and phosphate amendment
Procedure: Experiments were conducted to compare biogenic methane generation from coal samples after introducing an amendment of hydrogen gas, a phosphorous compound, and ammonia. For each experiment, methane generation from coal samples from the Monarch coal seam in the Powder River Basin in Wyoming was periodically measured over the course of about 627 days. Each anaerobic 5 gram coal sample was placed in a nominal 36.5 ml serum bottle with 15 mL of anaerobic water that was also taken from the formation. The coal and formation water were placed in the serum bottle while working in an anaerobic glove bag. The headspace in the bottle above the sample was flushed with a mixture of N2 and CO2 (95/5).
The methane levels in the headspace above the samples was periodically measured and recorded. The methane was measured by running samples of the headspace gases through a gas chromatograph equipped with a thermal conductivity detector.

[5] = tested on: coal formation in Wyoming's Powder River Basin
Procedure: FIGS. 14A-B show graphs of measurements of methane gas production over time from a coal formation in Wyoming's Powder River Basin before and after an amendment of phosphate and filtered water was introduced to the formation.
The gas well was then treated with an amendment of phosphate and filtered water for about 1.2 months (i.e., late August to early October). The amendment included the introduction of an aqueous solution of 9.5×10^−5 M potassium phosphate to an underground natural gas formation at a rate of about 14,400 L/day for each day of the treatment period. Following the treatment period with the phosphorous amendment, the gas well was sealed for a period of about 2 months (i.e., early October to early December) before the measurements of gas were measured during the post-amendment period (the dwell period).
Then the same phosphorous amendment as described for FIG. 14A was added to the formation for a 1.2 month period (i.e., late August to early October) followed by an approximately 2 month dwell period.

[6] = tested on: microorganism consortia in coal samples
Source text: Rollover is a condition where the rate of biogenic methane production starts to plateau as the in situ methane concentration reaches a certain level. In many instances, the rate flattens to zero, and the methane concentration remains constant over time. The rollover point (i.e., the point where the methane concentration begins to break from a monotonically increasing state) can vary between microorganism consortia, but appears to be reached in almost all unamended samples of carbonaceous material that have been examined to date.

[7] = tested on: microorganisms in Monarch coal, formation water and cell concentrate; conditions: 18.0 mM acetate
Procedure: Experiments were conducted to measure the effects of acetate amendments on methane production from samples of carbonaceous materials. The carbonaceous materials used in these experiments were coal samples taken from underground coal beds at the Monarch coal site. […] The cell concentrate consisted of cells from about 6.6 L of formation water added to 15 mL of formation water.
In a first set of samples, the acetate amendment included adding an aqueous sodium acetate solution to the sample bottles to give the samples an 18.0 mM acetate concentration (an average measured concentration). A second set of control samples were prepared in the same manner except for lacking the acetate amendment. Methane levels (measured as a mol. % methane in the headspace of the sample bottle) were periodically measured in both the amendment and control samples over the course of 90 days.

bromoethanesulfonic acid [BESA, reference compound]
methane production, percentage of methane in headspace [1]: did not accumulate
methanogenesis, percentage of methane in headspace [2]: below detection
methanogenesis in parental bottles (methanogenic consortia): inhibited

O=P(O)(O)O [sodium phosphate]
methanogenesis, percentage of methane in headspace [2]: comparable stimulation relative to more complex nutrient mixtures
rate of methanogenesis ([3]; FIG. 11A): highest rates of methanogenesis
acetate production ([3]; FIG. 11B): stimulated acetate production relative to the unamended controls

[HH] [H2, hydrogen]
effect on coal metabolism to methane [4]: stimulated coal metabolism to methane

O=P(O)(O)O [potassium phosphate]
methane production, percentage of methane in headspace [1]: rates and yields of methanogenesis were highest
natural gas production rate relative to baseline period ([5]; FIG. 14A): about double the average production rate during the baseline period
natural gas production rate following treatment and dwell periods ([5]; FIG. 14A, 9.5×10^−5 M, about 14,400 L/day for about 1.2 months, about 2 months dwell): over 9 mcf/day
natural gas production rate following treatment ([5]; FIG. 14B, declining formation): jump in the natural gas product rate
methane level higher than samples without phosphate ([6]; 5 mg/L, after 600 days, FIG. 7): about 43%
methane level in headspace ([6]; 5 mg/L, after 600 days, FIG. 7): about 4.3 mol. %
methane concentration over time, rollover ([6]; just over 600 days, FIG. 8): no plateau was observed; also recorded: significantly higher methane levels than samples treated with a minerals amendment or the samples that were unamended

CC(=O)[O-].[Na+] [sodium acetate]
activation period before methane generation [7]: about 65 days
methane in the headspace of the sample bottle ([7]; 90th day): over 12 mol. %

Cl.N [ammonium chloride]
initial rate of methane production ([6]; 25 mg/L nitrogen, FIG. 7): initially greater than for the unamended samples or samples with other types of amendments
peak methane level ([6]; 25 mg/L nitrogen, FIG. 7): exceeded the peak plateau levels in the unamended samples
methane level versus unamended samples / plateau ([6]; about day 600, FIG. 7): about the same as those measured in the unamended samples
